{"source": "patent US9492403B2", "about": "“Method of treating overactive bladder, not due to cancer, by administering at least one jasmonate” (Broady Health Sciences, LLC, priority 2010, dated 2016)", "assay": "Study in five subjects with urinary bladder dysfunction symptoms taking Jasmone once a day for 30 days", "format": "in vivo, human", "excerpt": "Five subjects, 4 male and 1 female agreed to participate in the study. Subjects ranged in age from 55-73 with average age being 67. All participants experienced noticeable urinary bladder dysfunction symptoms including frequency, urgency, and reduced urine flow. Subjects took from 50 to 100 micrograms of Jasmone once a day for 30 days. At two weeks approximately ½ of the subjects experienced improved bladder function. […] For example, several subjects noted that before treatment they averaged 2 night time awakenings to urinate which was reduced to 1 or 0 subsequent to taking Jasmone. Other subjects had even greater improvement from an average of 3-4 night awakenings to urinate to 1. […] In addition several male subjects reported increased flow of discharge up to 100%."}
{"smiles": "CC/C=C\\CC1=C(C)CCC1=O", "note": "[Jasmone]", "values": [{"measurement": "reduction of daytime bathroom visits", "setting": "50 to 100 micrograms once a day for 30 days", "result": "approximately 50%"}, {"measurement": "fraction of subjects who experienced improved bladder function", "setting": "at two weeks, 50 to 100 micrograms of Jasmone once a day, five subjects aged 55-73", "result": "approximately ½"}, {"measurement": "subject-reported improvements in frequency, urgency, and urine flow", "setting": "by day thirty, 50 to 100 micrograms once a day", "result": "all subjects reported improvements in frequency, urgency, and urine flow"}, {"measurement": "night awakenings to urinate after treatment", "setting": "other subjects, average of 3-4 before treatment", "result": 1}, {"measurement": "increased flow of discharge", "setting": "several male subjects", "result": "up to 100%"}, {"measurement": "\"holding time\" (urgency) after treatment", "setting": "several patients, from approximately 10 minutes before treatment, i.e. during extended air travel", "result": "~60", "unit": "min"}]}
